Measurements as given in ChEMBL document CHEMBL1136685, “Structure-activity relationship of cyclic peptide penta-c[Asp-His(6)-DPhe(7)-Arg(8)-Trp(9)-Lys]-NH(2) at the human melanocortin-1 and -4 receptors: His(6) substitution” (Bioorg Med Chem Lett, 2003).
pEC50, pIC50: −log10 of the molar value.

Legend:
[1] = biological target: T1, Melanocyte-stimulating hormone receptor (Homo sapiens, UniProt Q01726); experiment: Agonist activity at human melanocortin receptor (hMC1R).; type: functional
Target sequence in this assay (Q01726 whole entry): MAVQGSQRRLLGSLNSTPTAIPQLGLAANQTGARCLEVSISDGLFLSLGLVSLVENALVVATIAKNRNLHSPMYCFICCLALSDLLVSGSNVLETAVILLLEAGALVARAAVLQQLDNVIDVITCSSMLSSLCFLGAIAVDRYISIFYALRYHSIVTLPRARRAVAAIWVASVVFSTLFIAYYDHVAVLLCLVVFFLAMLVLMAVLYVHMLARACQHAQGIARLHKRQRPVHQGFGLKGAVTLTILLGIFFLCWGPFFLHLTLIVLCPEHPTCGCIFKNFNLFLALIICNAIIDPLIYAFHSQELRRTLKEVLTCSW

Melanocortin receptor 3 = Melanocortin receptor 3 (Homo sapiens, UniProt P41968); experiment: Agonistic activity against human melanocortin receptor (hMC3R) for cAMP accumulation; type: functional
Chain of Melanocortin receptor 3 (P41968 whole entry): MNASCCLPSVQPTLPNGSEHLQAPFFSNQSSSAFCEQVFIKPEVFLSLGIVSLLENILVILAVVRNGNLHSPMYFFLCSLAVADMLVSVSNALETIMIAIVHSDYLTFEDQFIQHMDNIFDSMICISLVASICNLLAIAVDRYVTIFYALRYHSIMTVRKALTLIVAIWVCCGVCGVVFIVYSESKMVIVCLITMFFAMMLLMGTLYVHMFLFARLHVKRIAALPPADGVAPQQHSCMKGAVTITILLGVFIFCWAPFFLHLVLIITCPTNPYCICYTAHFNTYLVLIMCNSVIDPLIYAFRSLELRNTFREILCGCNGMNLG

Melanocortin receptor 4 [2] = biological target: T2, Melanocortin receptor 4 (Homo sapiens, UniProt P32245); experiment: Agonist activity at human melanocortin receptor (hMC4R).; type: functional
T2 sequence (P32245 whole entry): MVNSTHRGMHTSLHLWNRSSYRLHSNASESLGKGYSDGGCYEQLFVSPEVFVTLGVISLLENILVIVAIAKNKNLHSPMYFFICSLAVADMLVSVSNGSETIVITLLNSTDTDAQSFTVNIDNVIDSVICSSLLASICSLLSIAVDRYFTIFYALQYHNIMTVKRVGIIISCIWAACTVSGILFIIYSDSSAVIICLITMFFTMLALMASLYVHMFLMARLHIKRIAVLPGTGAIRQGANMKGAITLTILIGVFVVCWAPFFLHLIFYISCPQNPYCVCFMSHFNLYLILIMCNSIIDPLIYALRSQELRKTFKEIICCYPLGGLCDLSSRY

Melanocortin receptor 5 = Melanocortin receptor 5 (Homo sapiens, UniProt P33032); experiment: Agonistic activity against human melanocortin receptor (hMC5R) for cAMP accumulation; type: functional
Chain of Melanocortin receptor 5 (P33032 whole entry): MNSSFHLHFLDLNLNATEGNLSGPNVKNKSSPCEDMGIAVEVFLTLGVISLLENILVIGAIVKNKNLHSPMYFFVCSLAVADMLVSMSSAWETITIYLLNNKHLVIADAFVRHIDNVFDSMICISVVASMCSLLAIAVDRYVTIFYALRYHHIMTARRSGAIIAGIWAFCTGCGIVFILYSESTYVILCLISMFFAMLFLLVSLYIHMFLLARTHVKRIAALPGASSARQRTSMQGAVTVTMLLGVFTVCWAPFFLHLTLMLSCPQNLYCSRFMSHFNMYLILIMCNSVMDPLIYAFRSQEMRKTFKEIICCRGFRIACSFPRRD

Melanocortin receptor 4 [3] = experiment: (§1) Agonistic activity against human melanocortin receptor (hMC1R) for cAMP accumulation; type: functional
[4] = biological target: T1, Melanocyte-stimulating hormone receptor; experiment: as §1; type: functional
Target sequence in this assay (Q01726 whole entry, looked up): as the sequence (Q01726 whole entry) above

Melanocortin receptor 4 [5] = biological target: T2, Melanocortin receptor 4; experiment: Agonistic activity against human melanocortin receptor (hMC4R) for cAMP accumulation; type: functional
[6] = biological target: T1, Melanocyte-stimulating hormone receptor; experiment: Binding affinity towards human melanocortin receptor (hMC1R) using NDP-MSH as radioligand
Target sequence in this assay (Q01726 whole entry): as above

Melanocortin receptor 4 [7] = biological target: T2, Melanocortin receptor 4; experiment: Binding affinity towards human melanocortin receptor (hMC4R) using NDP-MSH as radioligand

Row | SMILES | pEC50 (Melanocortin receptor 4 [2]) | pEC50 (Melanocortin receptor 4 [5]) | pIC50 [6] | pIC50 (Melanocortin receptor 4 [7]) | further results
1 | CCCCC(=O)N[C@H]1CC(=O)NCCCC[C@@H](C(N)=O)NC(=O)[C@H](Cc2c[nH]c3ccccc23)NC(=O)[C@H](CCCNC(=N)N)NC(=O)[C@@H](Cc2ccccc2)NC(=O)[C@H](Cc2cnc[nH]2)NC1=O | 9.05 |  |  |  | pEC50 [1]: 9.40; pEC50 (Melanocortin receptor 3): 8.22; pEC50 (Melanocortin receptor 5): 7.48
2 | CCCCC(=O)N[C@H]1CC(=O)NCCCC[C@@H](C(N)=O)NC(=O)[C@H](Cc2c[nH]c3ccccc23)NC(=O)[C@H](CCCNC(=N)N)NC(=O)[C@@H](Cc2ccccc2)NC(=O)[C@H](Cc2ccc(-c3ccccc3)cc2)NC1=O | 8.22 |  |  |  | pEC50 (Melanocortin receptor 4 [3]): 7.28
3 | CCCCC(=O)N[C@H]1CC(=O)NCCCC[C@@H](C(N)=O)NC(=O)[C@H](Cc2c[nH]c3ccccc23)NC(=O)[C@H](CCCN=C(N)N)NC(=O)[C@@H](Cc2ccccc2)NC(=O)[C@@H]2c3ccccc3CN2C1=O (single isomer, unassigned; form 1) | 6.93 |  |  |  | pEC50 [4]: 7.25
4 | CCCCC(=O)N[C@H]1CC(=O)NCCCC[C@@H](C(N)=O)NC(=O)[C@H](Cc2c[nH]c3ccccc23)NC(=O)[C@H](CCCNC(N)=O)NC(=O)[C@@H](Cc2ccccc2)NC(=O)C2(CCc3c(Cl)cccc3C2)NC1=O (single isomer, unassigned; form 1) |  | 7.32 | 4.88 | 6.39 | 
5 | CCCCC(=O)N[C@H]1CC(=O)NCCCC[C@@H](C(N)=O)NC(=O)[C@H](Cc2c[nH]c3ccccc23)NC(=O)[C@H](CCCNC(N)=O)NC(=O)[C@@H](Cc2ccccc2)NC(=O)C2(CCc3c(Cl)cccc3C2)NC1=O (single isomer, unassigned; form 2) |  | 6.98 | 4.83 | 6.17 | 
